Patent US20250230155A1 (Vanderbilt University, priority 2021, published 2025)

Target: T1, human mAChR M4 (Homo sapiens, UniProt P08173)
T1 construct: expressed in transfected cells
T1 sequence (P08173 1-479): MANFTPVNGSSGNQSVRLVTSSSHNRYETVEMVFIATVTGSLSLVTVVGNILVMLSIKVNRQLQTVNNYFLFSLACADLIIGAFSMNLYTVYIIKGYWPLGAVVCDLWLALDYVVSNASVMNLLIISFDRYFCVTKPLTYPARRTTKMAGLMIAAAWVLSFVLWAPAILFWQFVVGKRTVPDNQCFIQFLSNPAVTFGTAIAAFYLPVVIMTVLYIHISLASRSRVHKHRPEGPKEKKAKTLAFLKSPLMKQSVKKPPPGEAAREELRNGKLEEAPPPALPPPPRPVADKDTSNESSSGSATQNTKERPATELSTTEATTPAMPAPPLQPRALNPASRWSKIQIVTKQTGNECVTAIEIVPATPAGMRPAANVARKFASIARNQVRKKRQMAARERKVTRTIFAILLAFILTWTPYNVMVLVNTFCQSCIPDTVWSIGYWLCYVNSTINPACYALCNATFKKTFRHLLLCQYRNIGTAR
Assay: mAChR M4 cell-based functional assay (calcium mobilization, CHO-K1 hM4-Gqi5 cells)
Conditions: for Emax at 30 µM: CHO-K1, % ACh maximum at 30 μM, human M4; for EC50: positive allosteric modulator activity, increase in the EC20 acetylcholine response, CHO-K1 hM4-Gqi5 cells, read-out: Human M4 EC50; for Emax: CHO-K1
In short: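 Fluorescent calcium read-out (Fluo-4 AM, FDSS, 1 Hz) in hM4-Gqi5 CHO-K1 cells, 11-point 1:3 compound series. Agonism scored on compound addition, PAM activity as increase of the 144 s EC20 acetylcholine response, antagonism as decrease of the 230 s EC80 response; four-parameter logistic fits give EC50 and Emax.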

| Structure (SMILES) | Emax at 30 µM | EC50 | Emax |
| --- | --- | --- | --- |
| Cc1cc(C#N)cnc1N1CCc2ncc(-c3ccnc(F)c3)cc2C1 [Example 340, 6-(3-(2-fluoropyridin-4-yl)-7,8-dihydro-1,6-naphthyridin-6(5)-yl)-5-methylnicotinonitrile] | 81% | 7550 nM | – |
| Cc1cc(F)c(F)cc1-c1cnc2c(c1)CN(c1nnc(C#N)cc1C)CC2 [Example 596, 6-(3-(4,5-difluoro-2-methylphenyl)-7,8-dihydro-1,6-naphthyridin-6(5H)-yl)-5-methylpyridazine-3-carbonitrile] | 54% | 1880 nM | – |
| Cc1nn(C)cc1-c1cnc2c(c1)CN(c1nc(NCC(C)(C)O)nc(C)c1C)CC2 [compound 274, 1-((4-(3-(1,3-dimethyl-1H-pyrazol-4-yl)-7,8-dihydro-1,6-naphthyridin-6(5H)-yl)-5,6-dimethylpyrimidin-2-yl)amino)-2-methylpropan-2-ol] | 87% | 735 nM | – |
| Cc1nc(Cl)c(C)c(N2CCc3ncccc3C2)n1 [compound 83, 6-(6-chloro-2,5-dimethyl-pyrimidin-4-yl)-7,8-dihydro-5H-1,6-naphthyridine] | – | 1540 nM | 77% |
| Cc1c(C#N)nnc(N2CCc3ncc(-c4ccnc(Cl)c4F)cc3C2)c1C [compound 73, 6-[3-(2-chloro-3-fluoro-4-pyridyl)-7,8-dihydro-5H-1,6-naphthyridin-6-yl]-4,5-dimethyl-pyridazine-3-carbonitrile] | 50% | 940 nM | – |
| Cc1cc(C#N)nnc1N1CCc2ncc(N3CCCn4nc(C(C)(C)C)cc43)cc2C1 [Example 418, 6-(3-(2-(tert-butyl)-6,7-dihydropyrazolo[1,5-a]pyrimidin-4(5H)-yl)-7,8-dihydro-1,6-naphthyridin-6(5H)-yl)-5-methylpyridazine-3-carbonitrile] | 80% | 516 nM | – |
| Cc1c(C#N)nnc(N2CCc3ncc(-c4cc(F)nc(F)c4)cc3C2)c1C [compound 75, 6-[3-(2,6-difluoro-4-pyridyl)-7,8-dihydro-5H-1,6-naphthyridin-6-yl]-4,5-dimethyl-pyridazine-3-carbonitrile] | 58% | 666 nM | – |
| Cc1cc(C(=O)NCc2cccc3cccnc23)cnc1N1CCc2ncccc2C1 [compound 156, 6-(7,8-dihydro-5H-1,6-naphthyridin-6-yl)-5-methyl-N-(8-quinolylmethyl)pyridine-3-carboxamide] | 84% | 1150 nM | – |
| Cc1cc(C(=O)NCc2ccncc2Cl)nnc1N1CCc2ncc(C(F)(F)F)cc2C1 [Example 497, N-((3-chloropyridin-4-yl)methyl)-5-methyl-6-(3-(trifluoromethyl)-7,8-dihydro-1,6-naphthyridin-6(5H)-yl)pyridazine-3-carboxamide] | 101% | 64 nM | – |
| [2H]C1([2H])Cc2ncc(Nc3cc(C)ncc3F)cc2C([2H])([2H])N1c1nnc(C#N)cc1C [Example 603, 6-(3-((5-fluoro-2-methylpyridin-4-yl)amino)-7,8-dihydro-1,6-naphthyridin-6(5H)-yl-5,5,7,7-d4)-5-methylpyridazine-3-carbonitrile] | 97% | 28 nM | – |
| Cc1cc(C(=O)NC23CC(F)(C2)C3)cnc1N1CCc2ncc(-c3cn(C)nc3C)cc2C1 [Example 477, 6-(3-(1,3-dimethyl-1H-pyrazol-4-yl)-7,8-dihydro-1,6-naphthyridin-6(5H)-yl)-N-(3-fluorobicyclo[1.1.1]pentan-1-yl)-5-methylnicotinamide] | 80% | 2470 nM | – |
| Cc1c(C#N)nnc(N2CCc3ncc(-c4cccnc4F)cc3C2)c1C [compound 54, 6-[3-(2-fluoro-3-pyridyl)-7,8-dihydro-5H-1,6-naphthyridin-6-yl]-4,5-dimethyl-pyridazine-3-carbonitrile] | 70% | 391 nM | – |
| Cc1nc(NC2CC2)nc(N2CCc3ncc(Nc4ccnn4C)cc3C2)c1C [compound 278, 6-(2-(cyclopropylamino)-5,6-dimethylpyrimidin-4-yl)-N-(1-methyl-1H-pyrazol-5-yl)-5,6,7,8-tetrahydro-1,6-naphthyridin-3-amine] | 95% | 178 nM | – |
| Cc1cc(F)ncc1-c1cnc2c(c1)CN(c1nnc(C#N)cc1C)CC2 [Example 593, 6-(3-(6-fluoro-4-methylpyridin-3-yl)-7,8-dihydro-1,6-naphthyridin-6(5H)-yl)-5-methylpyridazine-3-carbonitrile] | 70% | 876 nM | – |
| Cc1cc(C(=O)N2CC(C)(F)C2)nnc1N1CCc2ncc(N3CCO[C@H](C)C3)cc2C1 [Example 573, (R)-(3-fluoro-3-methylazetidin-1-yl)(5-methyl-6-(3-(2-methylmorpholino)-7,8-dihydro-1,6-naphthyridin-6(5H)-yl)pyridazin-3-yl)methanone] | 89% | 100 nM | – |
| Cc1nc(Cl)c(C)c(N2CCc3ncc(Oc4ccc(F)cc4)cc3C2)n1 [compound 202, 6-(6-chloro-2,5-dimethyl-pyrimidin-4-yl)-3-(4-fluorophenoxy)-7,8-dihydro-5H-1,6-naphthyridine] | 78% | 921 nM | – |
| Cc1cc(C#N)cnc1N1CCc2ncc(-c3cccc(F)n3)cc2C1 [compound 168, 6-[3-(6-fluoro-2-pyridyl)-7,8-dihydro-5H-1,6-naphthyridin-6-yl]-5-methyl-pyridine-3-carbonitrile] | 91% | 420 nM | – |
| Cc1nc(N2CCOCC2)nc(N2CCc3ncc(Nc4ccnn4C)cc3C2)c1C [compound 276, 6-(5,6-dimethyl-2-morpholinopyrimidin-4-yl)-N-(1-methyl-1H-pyrazol-5-yl)-5,6,7,8-tetrahydro-1,6-naphthyridin-3-amine] | 100% | 377 nM | – |
| Cc1c(C#N)nnc(N2CCc3ncc(Nc4c(F)cccc4Cl)cc3C2)c1C [Example 33] | 66% | 197 nM | – |
| COc1cnccc1CNC(=O)c1cc(C)c(N2CCc3ncc(C(F)(F)F)cc3C2)nn1 [Example 495, N-((3-methoxypyridin-4-yl)methyl)-5-methyl-6-(3-(trifluoromethyl)-7,8-dihydro-1,6-naphthyridin-6(5H)-yl)pyridazine-3-carboxamide] | 102% | 43 nM | – |
| COC1CN(C(=O)c2cc(C)c(N3CCc4ncc(N5CCCn6nccc65)cc4C3)nn2)C1 [Example 548, (6-(3-(6,7-dihydropyrazolo[1,5-a]pyrimidin-4(5H)-yl)-7,8-dihydro-1,6-naphthyridin-6(5H)-yl)-5-methylpyridazin-3-yl)(3-methoxyazetidin-1-yl)methanone] | 115% | 25 nM | – |
| CCCn1cc(-c2cnc3c(c2)CN(c2ncc(C#N)cc2C)CC3)cn1 [compound 108, 5-methyl-6-[3-(1-propylpyrazol-4-yl)-7,8-dihydro-5H-1,6-naphthyridin-6-yl]pyridine-3-carbonitrile] | 90% | 330 nM | – |
| Cc1nc(C)c(C)c(N2CCc3ncc(Oc4ccccc4F)cc3C2)n1 [compound 260, 3-(2-fluorophenoxy)-6-(2,5,6-trimethylpyrimidin-4-yl)-5,6,7,8-tetrahydro-1,6-naphthyridine] | 87% | 154 nM | – |
| Cc1nc(Cl)c(C)c(N2CCc3ncc(N)cc3C2)n1 [compound 213, 6-(6-chloro-2,5-dimethylpyrimidin-4-yl)-5,6,7,8-tetrahydro-1,6-naphthyridin-3-amine] | – | 1890 nM | 94% |
| Cc1cc(C#N)cnc1N1CCc2ncc(-c3cnn(CC(F)(F)F)c3)cc2C1 [compound 100, 5-methyl-6-[3-[1-(2,2,2-trifluoroethyl)pyrazol-4-yl]-7,8-dihydro-5H-1,6-naphthyridin-6-yl]pyridine-3-carbonitrile] | 80% | 188 nM | – |
| CCCCn1nc(C)cc1Nc1cnc2c(c1)CN(c1ncc(C#N)cc1C)CC2 [Example 315, 6-(3-((1-butyl-3-methyl-1H-pyrazol-5-yl)amino)-7,8-dihydro-1,6-naphthyridin-6(5H)-yl)-5-methylnicotinonitrile] | 47% | 961 nM | – |
| Cc1cc(C(=O)NC2CCCCC2)cnc1N1CCc2ncccc2C1 [compound 66, N-cyclohexyl-6-(7,8-dihydro-5H-1,6-naphthyridin-6-yl)-5-methyl-pyridine-3-carboxamide] | 47% | ≥ 10000 nM | – |
| Cc1cc(C#N)cnc1N1CCc2ncc(C(F)(F)F)cc2C1 [compound 165, 5-methyl-6-[3-(trifluoromethyl)-7,8-dihydro-5H-1,6-naphthyridin-6-yl]pyridine-3-carbonitrile] | 111% | 145 nM | – |
| Cc1ccc2c(n1)CCN(c1nnc(C#N)cc1C)C2 [Example 605, 5-methyl-6-(2-methyl-7,8-dihydro-1,6-naphthyridin-6(5H)-yl)pyridazine-3-carbonitrile] | – | 1440 nM | 106% |
| Cc1nc(C)c(C)c(N2CCc3ncc(-c4ccc(F)nc4)cc3C2)n1 [compound 229, 3-(6-fluoropyridin-3-yl)-6-(2,5,6-trimethylpyrimidin-4-yl)-5,6,7,8-tetrahydro-1,6-naphthyridine] | 59% | 332 nM | – |
